Measured values published in patent US20260297042A1, “BIARYLAMIDE DERIVATIVES AND THEIR USE AS PKMYT1 INHIBITORS” (CANCER RESEARCH TECHNOLOGY LIMITED, priority 2023, published 2026).

Legend:
[1] = test system: KYSE-30 cells; experiment: Cancer cell line proliferation assay, ATP-based cell viability (Cell Titre Glow), KYSE-30 (normal CCNE1); details: Homo sapiens, KYSE-30 cells (normal CCNE1), concentration that achieves 50% cell growth proliferation inhibition, read-out: KYSE30 Gl50
How it was run: (§1)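 Luminescence read-out from an ATP-based viability reagent served as the proliferation measure. Values are GI50 estimates, i.e. concentrations producing 50% inhibition of cell growth.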

[2] = test system: OVCAR 3 cells; experiment: Cancer cell line proliferation assay, ATP-based cell viability (Cell Titre Glow), OVCAR 3 (CCNE1-amplified); details: KYSE30 (normal CCNE1) GI50 vs. OVCAR 3 (CCNE1-amplified) GI50
How it was run: as §1

[3] = target: T1, Cellular PKMYT1 Biomarker CDK1 pT14 (Homo sapiens, UniProt Q99640); experiment: Inhibition of cellular PKMYT1 biomarker CDK1 pT14 in OVCAR 3 cells (immunoblot); assay type: cell-based; details: 20 hours incubation
T1 construct: read-out CDK1 phospho-T14 immunoblot
T1 sequence (Q99640 1-499): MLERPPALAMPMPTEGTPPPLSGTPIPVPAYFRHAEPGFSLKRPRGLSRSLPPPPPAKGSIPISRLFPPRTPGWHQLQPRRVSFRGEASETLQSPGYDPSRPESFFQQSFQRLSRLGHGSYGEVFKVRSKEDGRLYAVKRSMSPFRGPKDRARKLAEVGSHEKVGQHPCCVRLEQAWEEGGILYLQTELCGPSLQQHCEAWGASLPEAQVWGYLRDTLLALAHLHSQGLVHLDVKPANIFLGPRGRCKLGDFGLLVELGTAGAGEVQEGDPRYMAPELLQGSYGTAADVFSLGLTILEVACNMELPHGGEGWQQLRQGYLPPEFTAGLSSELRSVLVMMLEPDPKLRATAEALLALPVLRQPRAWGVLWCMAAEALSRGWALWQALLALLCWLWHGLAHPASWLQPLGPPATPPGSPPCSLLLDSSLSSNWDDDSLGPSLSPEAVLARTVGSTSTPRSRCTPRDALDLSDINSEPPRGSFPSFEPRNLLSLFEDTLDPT
Experimental: To determine compound PKMYT1 IC50 in a cellular assay, OVCAR 3 cells were incubated at 37° C. in 5% CO2 atmosphere. The cells were maintained in RPMI medium supplemented with 20% foetal bovine serum, 1X non essential amino acids, 1 mM sodium pyruvate, Glutamax and insulin. Cells were seeded into 12-well plates at low density (50,000-200,000 cells per well), grown to confluence (~350-400,000 cells per well) and then treated with a range of concentrations of PKMYT1 inhibitors. The cells were incubated 20 hours and then harvested into 1X Laemmli Sample Buffer (BIORAD) without 2-mercaptoethanol, heated to 95° C. for 5 min, centrifuged and sonicated using a microprobe for 15 sec, 21W to shear the DNA.
The samples were analysed by immunoblot on a Jess Automated Western Blot System (BioTechne). The samples were separated using the 12-230 kDa Separation Module (BioTechne,) and blotted using an anti-CDK1 phospho T14 antibody (Abcam, #ab58509) and an anti-vinculin antibody (Abcam, #126002). Specific binding was detected by fluorescence using the Anti-Rabbit Detection Module (BioTechne, #DM-001), quantified using Compass for Simple Western software, and IC50 values were calculated by regression analysis in GraphPad Prism.

[4] = target: T2, Human PKMYT1 (Homo sapiens, UniProt Q99640); experiment: PKMYT1 biochemical ADP-Glo enzymatic assay; details: ADP-Glo; 15 nM PKMYT1 kinase domain, 500 µM ATP, 60 minutes at 26° C.; banded
T2 construct: Human PKMYT1 75-362 was cloned as a TEV cleavable 6xHis fusion; 6xHis (TEV cleavable) (cleaved yes); made in house; host or cells: bacterial cells
T2 sequence (Q99640 75-362): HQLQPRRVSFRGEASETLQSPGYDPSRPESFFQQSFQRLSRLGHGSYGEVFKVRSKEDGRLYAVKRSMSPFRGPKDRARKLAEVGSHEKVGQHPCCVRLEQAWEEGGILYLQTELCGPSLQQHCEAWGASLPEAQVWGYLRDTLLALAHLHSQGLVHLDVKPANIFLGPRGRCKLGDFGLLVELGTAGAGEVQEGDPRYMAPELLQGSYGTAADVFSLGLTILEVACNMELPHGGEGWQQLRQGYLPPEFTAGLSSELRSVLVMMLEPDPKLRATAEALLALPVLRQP
How it was run: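 PKMYT1 75-362 (His-cleaved, bacterial) 15 nM; ATP 500 µM; HEPES pH 7.5, MgCl2, EGTA, Brij-35, 1% DMSO; 60 min, 26 °C; ADP-Glo Max luminescence; 10-pt 3-fold titration → IC50; replicates within 3-fold, r2 >0.9.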

[5] = target: T3, WEE1 (Homo sapiens, UniProt P30291); experiment: Selectivity versus WEE1 assay (ADP-Glo enzymatic assay); assay type: biochemical; details: banded; for IC50: ADP-Glo, 15 nM WEE1, 60 minutes at 26° C.; for PKMYT1 vs. WEE1 selectivity: fold difference in selectivity for PKMYT1 over WEE1, ">N" = at least in this band but could be higher
T3 construct: purchased Thermo Fisher PR7373A
How it was run: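 15 nM WEE1, 30 µM ATP, 50 mM HEPES pH 7.5, 10 mM MgCl2, 1 mM EGTA, 0.01% Brij-35, 1% DMSO; 60 min, 26° C; ADP-Glo luminescence; IC50 from curve fit, replicates within 3-fold, r2 >0.9.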

T3 sequence (P30291 whole entry): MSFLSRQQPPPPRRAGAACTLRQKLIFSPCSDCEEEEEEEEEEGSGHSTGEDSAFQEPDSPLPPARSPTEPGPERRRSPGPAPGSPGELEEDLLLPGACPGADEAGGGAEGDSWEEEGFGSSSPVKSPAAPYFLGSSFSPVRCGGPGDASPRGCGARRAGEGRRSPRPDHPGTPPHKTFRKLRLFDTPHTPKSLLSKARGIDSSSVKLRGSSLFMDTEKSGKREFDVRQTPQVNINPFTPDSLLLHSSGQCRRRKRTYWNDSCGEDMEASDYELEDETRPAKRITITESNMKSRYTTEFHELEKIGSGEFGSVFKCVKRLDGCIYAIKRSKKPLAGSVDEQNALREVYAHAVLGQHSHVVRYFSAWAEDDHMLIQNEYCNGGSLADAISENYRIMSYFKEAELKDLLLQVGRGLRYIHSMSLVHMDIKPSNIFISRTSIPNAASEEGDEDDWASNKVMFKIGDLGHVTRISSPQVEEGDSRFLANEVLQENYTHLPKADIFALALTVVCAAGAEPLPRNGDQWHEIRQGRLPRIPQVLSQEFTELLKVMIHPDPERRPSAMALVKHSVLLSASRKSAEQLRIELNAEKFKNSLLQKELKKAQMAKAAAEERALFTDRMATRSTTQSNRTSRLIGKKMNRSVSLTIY

IC50 [3] | IC50 [4] | IC50 [5] | PKMYT1 vs. WEE1 selectivity [5] | SMILES | GI50 [1] | Selectivity ratio KYSE30 Gl50 vs. OVCAR3 Gl50 [2]
< 100 nM | < 50 nM | > 11000 nM | X (100-<1000 fold) | Cc1cn(CC(F)(F)F)nc1Nc1ncc(C(=O)Nc2c(C)ccc(O)c2C)s1 [BAA-271, N-(3-hydroxy-2,6-dimethylphenyl)-2-((4-methyl-1-(2,2,2-trifluoroethyl)-1H-pyrazol-3-yl)amino) thiazole-5-carboxamide] | > 5000 nM | Y (>20 fold)
< 100 nM | < 50 nM | > 11000 nM | Y (1000-5000 fold) | Cc1ccc(O)c(C)c1NC(=O)c1cnc(Nc2nccc3ccc(F)cc23)s1 [BAA-303, 2-((7-fluoroisoquinolin-1-yl)amino)-N-(3-hydroxy-2,6-dimethylphenyl)thiazole-5-carboxamide] | 500 to 5000 nM | X (3-20 fold)
< 100 nM | 50 to 1000 nM | > 11000 nM | X (100-<1000 fold) | Cc1ccc(O)c(C)c1NC(=O)c1cnc(Nc2ccc(N3CCC(F)(F)CC3)cn2)s1 [BAA-308, 2-((5-(4,4-difluoropiperidin-1-yl)pyridin-2-yl)amino)-N-(3-hydroxy-2,6-dimethylphenyl)thiazole-5-carboxamide] | 500 to 5000 nM | X (3-20 fold)
< 100 nM | 50 to 1000 nM | > 11000 nM | Y (1000-5000 fold) | Cc1ccc(NC(=O)c2ccc(F)cc2)nc1Nc1ncc(C(=O)Nc2c(C)ccc(O)c2C)s1 [BAA-309, 2-((6-(4-fluorobenzamido)-3-methylpyridin-2-yl)amino)-N-(3-hydroxy-2,6-dimethylphenyl)thiazole-5-carboxamide] | 500 to 5000 nM | Y (>20 fold)
< 100 nM | 50 to 1000 nM | > 11000 nM | X (100-<1000 fold) | Cc1cc(Nc2ncc(C(=O)Nc3c(C)ccc(O)c3C)s2)nc(N2CCC(F)(F)CC2)n1 [BAA-313, 2-((2-(4,4-difluoropiperidin-1-yl)-6-methylpyrimidin-4-yl)amino)-N-(3-hydroxy-2,6-dimethylphenyl)thiazole-5-carboxamide] | 500 to 5000 nM | Y (>20 fold)
< 100 nM | 50 to 1000 nM | 1000 to 11000 nM | W (10-<100 fold) | Cc1ccc(O)c(C)c1NC(=O)c1cnc(Nc2cccc(N3CCC(F)(F)CC3)n2)s1 [BAA-314, 2-((6-(4,4-difluoropiperidin-1-yl)pyridin-2-yl)amino)-N-(3-hydroxy-2,6-dimethylphenyl)thiazole-5-carboxamide] | 500 to 5000 nM | Y (>20 fold)
100 to 1000 nM | 50 to 1000 nM | > 11000 nM | Y (1000-5000 fold) | Cc1ccc(O)c(C)c1NC(=O)c1cnc(Nc2cccc(-c3ccc(C(F)(F)F)cc3)n2)s1 [BAA-316, N-(3-hydroxy-2,6-dimethylphenyl)-2-((6-(4-(trifluoromethyl)phenyl)pyridin-2-yl)amino)thiazole-5-carboxamide] | 500 to 5000 nM | Y (>20 fold)
< 100 nM | < 50 nM | > 11000 nM | Y (1000-5000 fold) | COc1cc(-c2cccc(Nc3ncc(C(=O)Nc4c(C)ccc(O)c4C)s3)n2)cc(OC)c1OC [BAA-317, N-(3-hydroxy-2,6-dimethylphenyl)-2-((6-(3,4,5-trimethoxyphenyl)pyridin-2-yl)amino)thiazole-5-carboxamide] | 500 to 5000 nM | Y (>20 fold)
< 100 nM | < 50 nM | > 11000 nM | Y (1000-5000 fold) | Cc1cc(Nc2ncc(C(=O)Nc3c(C)ccc(O)c3C)s2)nc(OCC(F)(F)F)n1 [BAA-319, N-(3-hydroxy-2,6-dimethylphenyl)-2-((6-methyl-2-(2,2,2-trifluoroethoxy)pyrimidin-4-yl)amino)thiazole-5-carboxamide] | 500 to 5000 nM | Y (>20 fold)
< 100 nM | < 50 nM | > 11000 nM | Y (1000-5000 fold) | Cc1ccc(O)c(C)c1NC(=O)c1cnc(Nc2cccc(NC(=O)c3ccc(F)cc3)n2)s1 [BAA-320, 2-((6-(4-fluorobenzamido)pyridin-2-yl)amino)-N-(3-hydroxy-2,6-dimethylphenyl)thiazole-5-carboxamide] | 500 to 5000 nM | Y (>20 fold)
100 to 1000 nM | 50 to 1000 nM | > 11000 nM | X (100-<1000 fold) | Cc1ccc(O)c(C)c1NC(=O)c1cnc(Nc2cc(C(F)(F)F)cc(Cl)n2)s1 [BAA-321, 2-((6-chloro-4-(trifluoromethyl)pyridin-2-yl)amino)-N-(3-hydroxy-2,6-dimethylphenyl)thiazole-5-carboxamide] | > 5000 nM | Y (>20 fold)
< 100 nM | < 50 nM | > 11000 nM | Y (1000-5000 fold) | Cc1ccc(NC(=O)C(C)(C)C)nc1Nc1ncc(C(=O)Nc2c(C)ccc(O)c2C)s1 [BAA-323, N-(3-hydroxy-2,6-dimethylphenyl)-2-((3-methyl-6-pivalamidopyridin-2-yl)amino)thiazole-5-carboxamide] | 500 to 5000 nM | Y (>20 fold)
< 100 nM | 50 to 1000 nM | > 11000 nM | Y (1000-5000 fold) | Cc1ccc(O)c(C)c1NC(=O)c1cnc(Nc2cccc(N(C)C(=O)c3c(F)cc(F)cc3F)n2)s1 [BAA-325, N-(3-hydroxy-2,6-dimethylphenyl)-2-((6-(2,4,6-trifluoro-N-methylbenzamido)pyridin-2-yl)amino)thiazole-5-carboxamide] | > 5000 nM | X (3-20 fold)
< 100 nM | 50 to 1000 nM | > 11000 nM | X (100-<1000 fold) | Cc1ccc(O)c(C)c1NC(=O)c1cnc(Nc2cc(C(F)(F)F)nc(N3CCOCC3)n2)s1 [BAA-326, N-(3-hydroxy-2,6-dimethylphenyl)-2-((2-morpholino-6-(trifluoromethyl)pyrimidin-4-yl)amino)thiazole-5-carboxamide] | 500 to 5000 nM | Y (>20 fold)
